# Assay results as given in ChEMBL document CHEMBL1154386, “Synthesis, characterization and in vitro evaluation of new oxorhenium- and oxotechnetium-CCK4 derivatives as molecular imaging agents for CCK2-receptor targeting” (Eur J Med Chem, 2010).
# Starred links: 1 amine or outer side, 2 acyl side, 3 side chain; linkers in the order of their positions; H or OH if unused. Non-standard residues stand in square brackets, D forms with d. Residues, ends and D or L forms follow the SMILES beside them. *: point of attachment. Acetyl(2-STrt) = O=C(CSC(c1ccccc1)(c1ccccc1)c1ccccc1)*; X1 = Oc1ccc(NC(=S)[*:2])cc1N[*:1]; Nle = CCCC[C@H](N)C(=O)O; Ahx = NCCCCCC(=O)O; βAla = NCCC(=O)O
# Target: T1, Gastrin/cholecystokinin type B receptor (Homo sapiens) (UniProt P32239)
# T1 sequence (whole entry): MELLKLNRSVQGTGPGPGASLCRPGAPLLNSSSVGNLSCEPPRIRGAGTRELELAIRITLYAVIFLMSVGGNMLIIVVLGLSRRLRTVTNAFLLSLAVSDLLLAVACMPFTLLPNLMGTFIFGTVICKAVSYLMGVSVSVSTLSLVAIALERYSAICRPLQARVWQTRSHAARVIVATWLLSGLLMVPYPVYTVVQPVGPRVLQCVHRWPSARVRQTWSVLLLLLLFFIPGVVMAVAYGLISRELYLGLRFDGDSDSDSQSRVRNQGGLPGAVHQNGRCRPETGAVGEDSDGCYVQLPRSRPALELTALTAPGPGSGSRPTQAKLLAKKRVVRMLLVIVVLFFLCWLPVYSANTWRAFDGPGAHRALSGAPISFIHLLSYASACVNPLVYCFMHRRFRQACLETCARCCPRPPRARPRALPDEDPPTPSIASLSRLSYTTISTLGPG
# Assay: Agonist activity at human CCK2 receptor expressed in COS7 cells assessed as stimulation of [3H]inositol phosphate formation
# Assay type: functional, cell-based
# Details: COS-7
compound,measurement,value
CCCC[C@H](NC(=O)[C@H](Cc1c[nH]c2ccccc12)NC(=O)CCCCCNC(=O)CCCCCNC(=S)Nc1ccc(O)c(NC(=O)CNC(=O)CSC(c2ccccc2)(c2ccccc2)c2ccccc2)c1)C(=O)N[C@@H](CC(=O)O)C(=O)N[C@@H](Cc1ccccc1)C(N)=O ({Acetyl(2-STrt)}-G[X1][Ahx][Ahx]W[Nle]DF-NH2),ED50,5.01 nM
CCCC[C@H](NC(=O)[C@H](Cc1c[nH]c2ccccc12)NC(=S)Nc1ccc(O)c(NC(=O)CNC(=O)CSC(c2ccccc2)(c2ccccc2)c2ccccc2)c1)C(=O)N[C@@H](CC(=O)O)C(=O)N[C@@H](Cc1ccccc1)C(=O)O ({Acetyl(2-STrt)}-G[X1]W[Nle]DF-OH),ED50,84.5 nM
CCCC[C@H](NC(=O)[C@H](Cc1c[nH]c2ccccc12)NC(=O)CCNC(=O)CCNC(=S)Nc1ccc(O)c(NC(=O)CNC(=O)CSC(c2ccccc2)(c2ccccc2)c2ccccc2)c1)C(=O)N[C@@H](CC(=O)O)C(=O)N[C@@H](Cc1ccccc1)C(N)=O ({Acetyl(2-STrt)}-G[X1][βAla][βAla]W[Nle]DF-NH2),ED50,3.1 nM
